Experimental data from patent US20120270935A1, “FORMULATIONS” (priority 2009, published 2012).

Assays:
S. pyogenes ATCC 12344 [1] = assay: MIC assay; format: cell-based, Streptococcus pyogenes; conditions: Mueller-Hinton broth pH 7.0
S. pyogenes ATCC 12344 [2] = assay: Disc diffusion assay (DDA); format: cell-based, Streptococcus pyogenes; conditions: 200 μg per disc; Mueller-Hinton agar pH 7.0; 48 hours at 37° C., 5% carbon dioxide
From the text: (a) staphylococci. The Staphylococcus aureus strain used was ATCC 29213. S. aureus and other staphylococci are common causes of a wide range of skin, skin structure and wound infections; S. aureus is also known to exacerbate eczema. The ATCC 29213 strain is known to be susceptible to beta-lactam antibiotics such as methicillin. The Staphylococcus epidermidis strain used was NCTC 11047. Staph. epidermidis forms part of the resident flora of skin and is an opportunistic pathogen which can cause biofilms to grow for instance on plastic surgical implants such as catheters. Unless otherwise stated, the staphylococci were cultured and maintained on Mueller-Hinton Medium (agar and broth) at pH 7.2; cultures were incubated aerobically at 37° C. for 19-20 hours, at pH 7 (±0.2). (b) C. striatum NCTC 764. Corynebacterium striatum is closely related to organisms (aerobic diphtheroids of the genus Corynebacterium) that cause body odour. It was cultured and maintained on Mueller-Hinton medium (agar and broth). All cultures were incubated aerobically at 37° C. for 72 hours, at pH 7 (±0.2). (c) streptococci. The strains tested were S. mutans ATCC 25175 and S. pyogenes ATCC 12344. […] The diameter of this zone of “inhibition” was measured using a ProtoCOL™ automated zone sizer (Synbiosis, Cambridge, UK). […]

C. striatum NCTC 764 = assay: Disc diffusion assay (DDA); format: cell-based, Corynebacterium striatum; conditions: Corynebacterium striatum, NCTC764; 200 μg per disc; single plates; read-out: DDA zone diameter
From the text: (a) staphylococci. The Staphylococcus aureus strain used was ATCC 29213. S. aureus and other staphylococci are common causes of a wide range of skin, skin structure and wound infections; S. aureus is also known to exacerbate eczema. The ATCC 29213 strain is known to be susceptible to beta-lactam antibiotics such as methicillin. The Staphylococcus epidermidis strain used was NCTC 11047. Staph. epidermidis forms part of the resident flora of skin and is an opportunistic pathogen which can cause biofilms to grow for instance on plastic surgical implants such as catheters. Unless otherwise stated, the staphylococci were cultured and maintained on Mueller-Hinton Medium (agar and broth) at pH 7.2; cultures were incubated aerobically at 37° C. for 19-20 hours, at pH 7 (±0.2). (b) C. striatum NCTC 764. Corynebacterium striatum is closely related to organisms (aerobic diphtheroids of the genus Corynebacterium) that cause body odour. It was cultured and maintained on Mueller-Hinton medium (agar and broth). All cultures were incubated aerobically at 37° C. for 72 hours, at pH 7 (±0.2). (c) streptococci. […]
A sterile paper disc was impregnated with a sample of the test compound in a suitable solvent and 30 minutes allowed for the solvents to evaporate (where possible). […] The diameter of this zone of “inhibition” was measured using a ProtoCOL™ automated zone sizer (Synbiosis, Cambridge, UK). […]

Row | Compound | MIC (S. pyogenes ATCC 12344 [1]) [mg/L] | DDA zone diameter (S. pyogenes ATCC 12344 [2]) [mm] | zone of inhibition at 200 µg/disc (C. striatum NCTC 764) [mm]
1 | CC(=O)c1c([O-])c(C)c([O-])c2c1OC1=CC(=O)C(C(C)=O)C(=O)C12C.[Cu+2] (stereo not drawn) [Copper usnate, copper (II) usnate] | 0.98 | 31.3 ± 0.6 | 
2 | CC(=O)c1c(O)c(C)c(O)c2c1OC1=CC(=O)C(C(C)=O)C(=O)C12C (stereo not drawn) [Usnic acid, 2,6-diacetyl-7,9-dihydroxy-8,9b-dimethyl-1,3(2H,9bh)-dibenzofurandione] |  |  | 20
